Assay results from patent publication US11738008B2, “N-methyl-D-aspartic acid receptor modulators” (Emory University, priority 2018, dated 2023).
Like-named read-outs stand apart in the source and are kept apart here.

Legend:
dopamine transporter = dopamine transporter (Homo sapiens, UniProt Q01959); experiment: NIMH PDSP radioligand binding, dopamine transporter; details: read-out: Radioligand binding in 10 μM compound (% control)
Experimental: (§1) The NIMH PDSP is Directed by Bryan L. Roth at the University of North Carolina at Chapel Hill and Project Officer Jamie Driscoll at NIMH, Bethesda Md., USA. Radioligand binding was measured in the presence of 10 μM 1180-420 and 1180-447. […] For experimental details please refer to the PDSP web site https://pdsp.unc.edu/ims/investigator/web/. Both 1180-420 and 1180-447 were also tested at AMPA, nicotinic acetylcholine, serotonin, GABA, and glycine ion channels using a two-electrode voltage clamp assay.
(§2) Receptor binding profiles of compound 1180-447 were generously provided by the National Institute of Mental Health's Psychoactive Drug Screening Program, Contract # HHSN-271-2013-00017-C(NIMH PDSP). The NIMH PDSP is directed by Bryan L. Roth at the University of North Carolina at Chapel Hill and Project Officer Jamie Driscoll at NIMH, Bethesda Md., USA. Radioligand binding was measured in the presence of 10 μM 1180-447. […] For experimental details please refer to the PDSP web site https://pdsp.unc.edu/ims/investigator/web/.
(§3) The NIMH PDSP is Directed by Bryan L. Roth at the University of North Carolina at Chapel Hill and Project Officer Jamie Driscoll at NIMH, Bethesda Md., USA. Radioligand binding was measured in the presence of 10 μM 1180-420. […] For experimental details please refer to the PDSP web site https://pdsp.unc.edu/ims/investigator/web/.

M3 = M3 (Homo sapiens, UniProt P20309); experiment: NIMH PDSP radioligand binding, M3; details: read-out: Radioligand binding in 10 μM compound (% control)
Experimental: as §1, §2, §3

α2A = α2A (Homo sapiens, UniProt P08913); experiment: NIMH PDSP radioligand binding, α2A; details: read-out: Radioligand binding in 10 μM compound (% control)
Experimental: as §1, §2, §3

β3 = β3 (Homo sapiens, UniProt P13945); experiment: NIMH PDSP radioligand binding, β3; details: read-out: Radioligand binding in 10 μM compound (% control)
Experimental: as §1, §2, §3

H2 = H2 (Homo sapiens, UniProt P25021); experiment: NIMH PDSP radioligand binding, H2; details: read-out: Radioligand binding in 10 μM compound (% control)
Experimental: as §1, §2, §3

rat GluN1/GluN2C [1] = molecular target: rat GluN1/GluN2C (Rattus norvegicus, UniProt Q00961); experiment: Two-electrode voltage clamp recordings in Xenopus laevis oocytes, potentiation of GluN1/GluN2C; type: cell-based
Experimental: (§4) Xenopus laevis oocytes were purchased unfertilized from Ecocyte (Austin, Tex.). The oocytes were injected with mRNA to express recombinant rat GluN1/GluN2A, GluN1/GluN2B, GluN1/GluN2C, and GluN1/GluN2D and two-electrode voltage clamp (TEVC) recordings were performed. Drs. S. Heinemann (Salk Institute), S. Nakanishi (Kyoto University), and P. Seeburg (University of Heidelberg) provided the cDNAs for rat GluN1-1a (GenBank accession numbers U11418 and U08261, referred to as GluN1 henceforth), GluN2A (D13211), GluN2B (U11419), GluN2C (M91563), and GluN2D (D13213). GluN2C and GluN2D were altered according to literature precedent. […] To prevent the current increase typically seen during experiments with oocytes expressing GluN1/GluN2A receptors, the oocytes were either injected with 20 nL of 100 mM K-BAPTA (potassium 1,2-bis(o-aminophenoxy)ethane-N,N,N,N-tetraacetic acid) or pretreated with 50 μM BAPTA-AM (1,2-bis(o-aminophenoxy)ethane-N,N,N,N-tetraacetic acid tetraacetoxymethyl ester) for 10 minutes.

rat GluN1/GluN2C [2] = molecular target: rat GluN1/GluN2C (Rattus norvegicus, UniProt P35439+Q00961); experiment: as above; type: cell-based
Experimental: as §4

α1D = α1D (Homo sapiens, UniProt P25100); experiment: NIMH PDSP radioligand binding, α1D; details: read-out: Radioligand binding in 10 μM compound (% control)
Experimental: as §1, §2, §3

M2 = M2 (Homo sapiens, UniProt P08172); experiment: NIMH PDSP radioligand binding, M2; details: read-out: Radioligand binding in 10 μM compound (% control)
Experimental: as §1, §2, §3

[3] = tested on: benzodiazapine rat brain site; experiment: NIMH PDSP radioligand binding, benzodiazapine rat brain site
Experimental: as §1, §2, §3

M4 = M4 (Homo sapiens, UniProt P08173); experiment: NIMH PDSP radioligand binding, M4; details: read-out: Radioligand binding in 10 μM compound (% control)
Experimental: as §1, §2, §3

H3 = H3 (Homo sapiens, UniProt Q9Y5N1); experiment: NIMH PDSP radioligand binding, H3; details: read-out: Radioligand binding in 10 μM compound (% control)
Experimental: as §1, §2, §3

5-HT1B = molecular target: T1, 5-HT1B (Homo sapiens, UniProt P28222); experiment: NIMH PDSP radioligand binding, 5-HT1B; details: read-out: Radioligand binding in 10 μM compound (% control)
T1 construct: NIMH PDSP (assay provider)
Experimental: as §1, §2, §3

α2C = α2C (Homo sapiens, UniProt P18825); experiment: NIMH PDSP radioligand binding, α2C; details: read-out: Radioligand binding in 10 μM compound (% control)
Experimental: as §1, §2, §3

D5 = molecular target: T2, D5 (Homo sapiens, UniProt P21918); experiment: NIMH PDSP radioligand binding, D5; details: for remaining activity at 10 µM: read-out: Radioligand binding in 10 μM compound (% control)
T2 construct: NIMH PDSP (assay provider)
Experimental: as §1, §2, §3

D2 = molecular target: T3, D2 (Homo sapiens, UniProt P14416); experiment: NIMH PDSP radioligand binding, D2; details: read-out: Radioligand binding in 10 μM compound (% control)
T3 construct: NIMH PDSP (assay provider)
Experimental: as §1, §2, §3

σ1 = σ1 (Homo sapiens, UniProt Q99720); experiment: NIMH PDSP radioligand binding, σ1; details: read-out: Radioligand binding in 10 μM compound (% control)
Experimental: as §1, §2, §3

CNS receptors = experiment: Off-target profile, NIMH PDSP CNS receptors (panel summary); type: binding; details: 10 μM
Experimental: as §1, §2, §3

5-HT2B = molecular target: T4, 5-HT2B (Homo sapiens, UniProt P41595); experiment: NIMH PDSP radioligand binding, 5-HT2B; details: read-out: Radioligand binding in 10 μM compound (% control)
T4 construct: NIMH PDSP (assay provider)
Experimental: as §1, §2, §3

[4] = molecular target: norepinephrine transporter (Homo sapiens, UniProt P23975); experiment: NIMH PDSP radioligand binding, norepinephrine transporter; details: read-out: Radioligand binding in 10 μM compound (% control)
Experimental: as §1, §2, §3

GluA2 = molecular target: T5, GluA2 (Homo sapiens, UniProt P42262); experiment: Off-target two-electrode voltage clamp assay, GluA2; type: cell-based; details: 10 μM, mean ± SEM
T5 construct: expressed in transfected cells
Experimental: as §1

α2B = α2B (Homo sapiens, UniProt P18089); experiment: NIMH PDSP radioligand binding, α2B; details: read-out: Radioligand binding in 10 μM compound (% control)
Experimental: as §1, §2, §3

5-HT2A = molecular target: T6, 5-HT2A (Homo sapiens, UniProt P28223); experiment: NIMH PDSP radioligand binding, 5-HT2A; details: for remaining activity at 10 µM: read-out: Radioligand binding in 10 μM compound (% control)
T6 construct: NIMH PDSP (assay provider)
Experimental: as §1, §2, §3

D4 = molecular target: T7, D4 (Homo sapiens, UniProt P21917); experiment: NIMH PDSP radioligand binding, D4; details: read-out: Radioligand binding in 10 μM compound (% control)
T7 construct: NIMH PDSP (assay provider)
Experimental: as §1, §2, §3

H1 = H1 (Homo sapiens, UniProt P35367); experiment: NIMH PDSP radioligand binding, H1; details: read-out: Radioligand binding in 10 μM compound (% control)
Experimental: as §1, §2, §3

[5] = read-out: pKi values from non-linear regression of radioligand competition binding isotherms (converted)

T2 sequence (P21918 whole entry): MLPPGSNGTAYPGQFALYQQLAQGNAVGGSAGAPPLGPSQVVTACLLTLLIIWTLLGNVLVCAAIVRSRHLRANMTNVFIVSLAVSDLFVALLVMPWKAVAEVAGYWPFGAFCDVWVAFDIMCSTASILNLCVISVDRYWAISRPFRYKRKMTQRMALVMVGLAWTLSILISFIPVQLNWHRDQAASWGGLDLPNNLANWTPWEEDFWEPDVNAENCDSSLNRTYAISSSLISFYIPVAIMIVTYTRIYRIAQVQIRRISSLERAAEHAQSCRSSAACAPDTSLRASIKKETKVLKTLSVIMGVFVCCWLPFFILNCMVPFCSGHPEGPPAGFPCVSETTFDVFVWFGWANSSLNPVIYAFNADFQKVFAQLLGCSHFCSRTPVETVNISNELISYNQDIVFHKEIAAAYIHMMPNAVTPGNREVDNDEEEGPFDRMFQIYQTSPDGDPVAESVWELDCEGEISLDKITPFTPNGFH
T6 sequence (P28223 whole entry, species assumed): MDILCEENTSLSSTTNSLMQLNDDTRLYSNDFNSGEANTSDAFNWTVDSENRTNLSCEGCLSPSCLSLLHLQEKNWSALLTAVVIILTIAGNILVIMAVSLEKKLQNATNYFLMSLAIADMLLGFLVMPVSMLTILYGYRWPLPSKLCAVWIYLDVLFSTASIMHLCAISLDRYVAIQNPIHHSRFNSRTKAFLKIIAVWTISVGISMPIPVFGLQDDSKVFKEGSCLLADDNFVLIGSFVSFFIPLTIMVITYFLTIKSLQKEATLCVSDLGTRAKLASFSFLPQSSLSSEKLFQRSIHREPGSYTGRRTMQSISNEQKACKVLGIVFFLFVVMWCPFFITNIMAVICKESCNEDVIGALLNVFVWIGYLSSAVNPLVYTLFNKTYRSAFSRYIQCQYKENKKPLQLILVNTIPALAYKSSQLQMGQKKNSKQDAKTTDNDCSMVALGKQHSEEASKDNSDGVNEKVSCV
Chain of dopamine transporter (Q01959 whole entry): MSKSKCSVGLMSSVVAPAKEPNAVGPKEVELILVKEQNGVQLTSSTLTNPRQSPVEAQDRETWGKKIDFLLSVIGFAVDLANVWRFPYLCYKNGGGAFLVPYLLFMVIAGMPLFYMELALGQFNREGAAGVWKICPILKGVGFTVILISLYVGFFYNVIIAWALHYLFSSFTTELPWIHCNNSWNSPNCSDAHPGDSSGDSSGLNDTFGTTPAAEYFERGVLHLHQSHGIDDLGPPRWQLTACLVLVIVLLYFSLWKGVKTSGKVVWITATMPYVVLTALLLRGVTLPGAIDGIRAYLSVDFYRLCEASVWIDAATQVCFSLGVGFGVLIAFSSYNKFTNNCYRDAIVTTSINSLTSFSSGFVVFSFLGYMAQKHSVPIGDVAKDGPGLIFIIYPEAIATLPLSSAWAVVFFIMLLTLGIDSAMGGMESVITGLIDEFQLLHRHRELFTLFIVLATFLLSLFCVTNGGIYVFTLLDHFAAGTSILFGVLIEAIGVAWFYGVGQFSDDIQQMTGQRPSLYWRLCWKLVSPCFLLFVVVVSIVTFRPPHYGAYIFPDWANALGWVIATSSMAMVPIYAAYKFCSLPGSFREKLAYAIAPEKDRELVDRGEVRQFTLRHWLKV
T5 sequence (P42262 25-883, species assumed): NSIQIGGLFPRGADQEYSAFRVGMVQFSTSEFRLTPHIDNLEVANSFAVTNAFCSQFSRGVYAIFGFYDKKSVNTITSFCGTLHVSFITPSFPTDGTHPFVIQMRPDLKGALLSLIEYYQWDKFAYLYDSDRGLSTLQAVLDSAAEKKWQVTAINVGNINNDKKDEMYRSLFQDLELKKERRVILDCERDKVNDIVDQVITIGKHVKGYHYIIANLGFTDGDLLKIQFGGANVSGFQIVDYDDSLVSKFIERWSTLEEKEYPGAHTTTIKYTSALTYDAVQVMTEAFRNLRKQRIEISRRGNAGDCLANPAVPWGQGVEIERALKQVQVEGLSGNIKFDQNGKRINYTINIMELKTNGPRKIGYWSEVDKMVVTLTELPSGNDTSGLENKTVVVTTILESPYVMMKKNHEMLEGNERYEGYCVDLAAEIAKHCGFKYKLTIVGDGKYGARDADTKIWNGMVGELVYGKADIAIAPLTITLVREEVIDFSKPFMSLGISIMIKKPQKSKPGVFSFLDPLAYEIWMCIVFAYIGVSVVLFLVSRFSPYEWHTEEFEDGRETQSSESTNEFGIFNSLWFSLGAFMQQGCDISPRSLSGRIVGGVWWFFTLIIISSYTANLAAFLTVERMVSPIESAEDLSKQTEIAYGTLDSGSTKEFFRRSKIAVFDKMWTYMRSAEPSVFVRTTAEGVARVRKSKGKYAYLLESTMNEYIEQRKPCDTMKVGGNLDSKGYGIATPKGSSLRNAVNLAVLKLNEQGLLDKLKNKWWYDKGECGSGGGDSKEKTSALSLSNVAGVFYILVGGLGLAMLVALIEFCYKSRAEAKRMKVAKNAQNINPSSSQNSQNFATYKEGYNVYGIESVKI
Chain of α2A (P08913 whole entry): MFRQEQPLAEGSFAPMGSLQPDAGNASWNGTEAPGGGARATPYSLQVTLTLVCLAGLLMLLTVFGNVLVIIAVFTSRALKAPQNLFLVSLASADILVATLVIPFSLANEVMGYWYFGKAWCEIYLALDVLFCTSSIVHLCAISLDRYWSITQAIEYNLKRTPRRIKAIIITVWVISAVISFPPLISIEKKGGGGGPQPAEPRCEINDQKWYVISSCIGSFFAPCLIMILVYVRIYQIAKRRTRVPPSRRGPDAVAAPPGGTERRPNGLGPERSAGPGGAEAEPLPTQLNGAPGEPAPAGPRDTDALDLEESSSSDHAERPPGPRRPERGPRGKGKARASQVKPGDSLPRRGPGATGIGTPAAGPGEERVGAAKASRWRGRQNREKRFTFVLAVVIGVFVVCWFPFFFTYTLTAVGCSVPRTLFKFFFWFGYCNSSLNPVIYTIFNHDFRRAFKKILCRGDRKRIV
Chain of norepinephrine transporter (P23975 whole entry, species assumed): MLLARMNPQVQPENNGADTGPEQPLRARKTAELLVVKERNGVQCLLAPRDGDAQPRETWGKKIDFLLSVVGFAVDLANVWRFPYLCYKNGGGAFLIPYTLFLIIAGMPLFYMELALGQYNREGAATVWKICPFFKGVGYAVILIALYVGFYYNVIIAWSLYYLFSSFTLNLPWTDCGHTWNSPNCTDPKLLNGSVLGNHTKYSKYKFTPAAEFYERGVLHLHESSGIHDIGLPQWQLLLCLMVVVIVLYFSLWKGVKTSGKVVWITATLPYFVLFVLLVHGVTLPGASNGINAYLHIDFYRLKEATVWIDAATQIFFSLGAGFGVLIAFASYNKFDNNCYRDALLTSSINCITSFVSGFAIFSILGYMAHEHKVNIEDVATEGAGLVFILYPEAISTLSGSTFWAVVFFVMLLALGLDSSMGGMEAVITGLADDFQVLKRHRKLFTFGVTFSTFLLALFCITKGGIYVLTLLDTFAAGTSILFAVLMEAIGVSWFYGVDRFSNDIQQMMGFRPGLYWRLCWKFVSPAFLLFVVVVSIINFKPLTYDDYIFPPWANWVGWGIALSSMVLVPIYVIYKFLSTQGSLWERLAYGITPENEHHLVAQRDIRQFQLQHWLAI
Chain of α2C (P18825 whole entry): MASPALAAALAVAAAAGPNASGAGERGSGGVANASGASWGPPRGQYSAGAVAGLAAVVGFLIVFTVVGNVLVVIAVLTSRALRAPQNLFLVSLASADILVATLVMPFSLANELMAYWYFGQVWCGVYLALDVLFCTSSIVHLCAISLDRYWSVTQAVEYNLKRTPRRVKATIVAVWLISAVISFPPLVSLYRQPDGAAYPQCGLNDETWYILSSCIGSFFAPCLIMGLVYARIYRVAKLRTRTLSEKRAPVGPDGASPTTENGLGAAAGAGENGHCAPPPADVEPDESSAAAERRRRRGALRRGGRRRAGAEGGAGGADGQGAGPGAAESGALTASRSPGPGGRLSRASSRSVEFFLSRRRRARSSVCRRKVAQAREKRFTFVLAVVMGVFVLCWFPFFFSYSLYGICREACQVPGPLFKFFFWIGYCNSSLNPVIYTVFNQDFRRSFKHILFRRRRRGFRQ
Chain of α1D (P25100 whole entry): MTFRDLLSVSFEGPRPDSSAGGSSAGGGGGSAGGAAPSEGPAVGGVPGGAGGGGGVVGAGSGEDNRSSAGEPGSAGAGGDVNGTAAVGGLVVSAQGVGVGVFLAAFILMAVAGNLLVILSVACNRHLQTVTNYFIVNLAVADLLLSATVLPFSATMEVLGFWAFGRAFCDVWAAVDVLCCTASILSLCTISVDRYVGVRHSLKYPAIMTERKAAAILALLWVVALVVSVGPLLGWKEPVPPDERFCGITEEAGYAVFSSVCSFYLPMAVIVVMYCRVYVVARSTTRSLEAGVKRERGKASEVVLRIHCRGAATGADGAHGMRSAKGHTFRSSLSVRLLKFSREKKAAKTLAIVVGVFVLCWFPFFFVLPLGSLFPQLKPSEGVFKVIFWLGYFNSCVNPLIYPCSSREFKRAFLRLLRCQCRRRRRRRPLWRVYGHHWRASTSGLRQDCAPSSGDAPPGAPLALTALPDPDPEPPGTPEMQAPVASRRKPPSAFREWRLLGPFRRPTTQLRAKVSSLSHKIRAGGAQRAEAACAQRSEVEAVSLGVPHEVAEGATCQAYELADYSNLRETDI
T4 sequence (P41595 whole entry, species assumed): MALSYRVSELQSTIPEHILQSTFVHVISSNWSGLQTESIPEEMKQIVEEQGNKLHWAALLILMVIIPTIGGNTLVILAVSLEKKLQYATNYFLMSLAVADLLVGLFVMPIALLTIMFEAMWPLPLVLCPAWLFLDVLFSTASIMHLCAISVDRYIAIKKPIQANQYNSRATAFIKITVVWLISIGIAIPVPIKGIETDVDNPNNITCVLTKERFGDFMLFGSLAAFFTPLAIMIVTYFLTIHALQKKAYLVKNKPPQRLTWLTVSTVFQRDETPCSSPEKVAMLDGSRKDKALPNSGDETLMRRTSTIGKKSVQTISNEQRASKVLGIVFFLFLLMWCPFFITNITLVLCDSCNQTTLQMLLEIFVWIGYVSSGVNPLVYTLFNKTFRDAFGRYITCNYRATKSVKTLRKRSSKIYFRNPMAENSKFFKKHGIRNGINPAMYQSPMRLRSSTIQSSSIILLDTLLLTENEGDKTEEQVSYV

SMILES	remaining activity at 10 µM (dopamine transporter) [%]	remaining activity at 10 µM (M3) [%]	remaining activity at 10 µM (α2A) [%]	remaining activity at 10 µM (β3) [%]	remaining activity at 10 µM (H2) [%]	remaining activity at 10 µM (α1D) [%]	remaining activity at 10 µM (M2) [%]	Radioligand binding in 10 μM compound (% control) [3] [% control]	remaining activity at 10 µM (M4) [%]	remaining activity at 10 µM (H3) [%]	remaining activity at 10 µM (5-HT1B) [%]	remaining activity at 10 µM (α2C) [%]	remaining activity at 10 µM (D5) [%]	remaining activity at 10 µM (D2) [%]	remaining activity at 10 µM (σ1) [%]	receptors with >50% inhibition / receptors tested (CNS receptors)	remaining activity at 10 µM (5-HT2B) [%]	remaining activity at 10 µM [4] [%]	% control response (GluA2) [% control response]	remaining activity at 10 µM (α2B) [%]	further results
COc1ccc(OCC2c3cccn3CCN2C(=O)c2cccc(Cl)c2)cc1 (stereo not shown) [1180-420, (3-Chlorophenyl)(1-((4-methoxyphenoxy)methyl)-3,4-dihydropyrrolo[1,2-a]pyrazin-2(1H)-yl)methanone]	98	69	79	74	75	79	110	71	84	99	95	83	37	87	76	4/44	97	75	101.6 ± 1.3	93	GluN2C Max % (rat GluN1/GluN2C [1]; maximal response, current without potentiator = 100%): 312%; EC50 (rat GluN1/GluN2C [2]; read-out: GluN2C EC50): 1900 nM; Ki (D5; [5]): 1260 nM; remaining activity at 10 µM (5-HT2A): 69%; remaining activity at 10 µM (D4): 90%; remaining activity at 10 µM (H1): 74%
COc1ccc(OCC2c3cccn3CC(=O)N2Cc2cccc(C(F)(F)F)c2)cc1 (racemic) [1180-447, 1-((4-Methoxyphenoxy)methyl)-2-(3-(trifluoromethyl)benzyl)-1,2-dihydropyrrolo[1,2-a]pyrazin-3(4H)-one]	76	87	98	73	103	79	90	88	100	79	109	85	67	101	76	4/44	78	70	99.3 ± 2.9	94	GluN2C (max) (%) (rat GluN1/GluN2C [1]): (298) %; EC50 (rat GluN1/GluN2C [2]; read-out: GluN2C pEC50 [95% CI] (converted)): 1260 nM; remaining activity at 10 µM (5-HT2A): 49%; Ki (5-HT2A; [5]): 2000 nM; remaining activity at 10 µM (D4): 101%; remaining activity at 10 µM (H1): 86%
